# Read-outs that look alike come from different tables or passages of the source.
# What was measured:
# human MLKL (full length) = human MLKL (full length) (Homo sapiens (Human), UniProt Q8NB16); test: KINOMEscan binding assay, human MLKL (full length)
# Outline: (§1)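 Active-site competition binding: DNA-tagged kinase (T7 phage fusion from BL21-derived E. coli lysate, or HEK-293-expressed) captured on immobilized-ligand beads, with bound kinase in the eluate quantified by qPCR. Compounds ran as 11-point 3-fold dilutions, 1% DMSO, top 30,000 nM for most. Kd came from a Hill fit (slope −1).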
# human RIPK1 = human RIPK1 (Homo sapiens (Human), UniProt Q13546); test: KINOMEscan binding assay, human RIPK1; settings: Table 21
# Outline: as §1
# human RIPK3 = human RIPK3 (Homo sapiens (Human), UniProt Q9Y572); test: KINOMEscan binding assay, human RIPK3; settings: Table 21
# Outline: as §1
# [1] = test system: Immortalised Mouse Dermal Fibroblasts (MDFs); test: Cellular assay: inhibition of TSI induced necroptosis, CellTitre-Glo viability; settings: Mus musculus, Fibroblast, MDF, 3 hours TSI cocktail, read-out: Inhibition of TSI-induced necroptosis (IC50 cell-based assay) in MDF
# Description: Cellular Assay: Screening Compounds for Inhibition of TSI Induced Necroptosis in, 384 Well Plate Format.
# • Cell Line ID: Immortalised Mouse Dermal Fibroblasts (MDFs). • Cell Concentration (cells/well): Final cell density is 2200 cells per well. • Cell growth medium: DMEM medium+7.4% Fetal Bovine Serum (FBS). Cells are cultured in Corning 150 cm^2 tissue culture flasks with vented caps at 37° C./10% CO2. • Incubation: Plates were incubated for 30 minutes following addition of compounds and then 3 hours incubation with death stimuli (TSI cocktail) at 37° C./10% CO2 in a humidified incubator. • Compound concentration: 36 μM starting concentration, 1:3 dilution, 10 point • DMSO final concentration (% v/v): 0.3%. Compounds in TSI Cocktail (T: TNF; S: Smac Mimetic; I: IDN-6556) and their Final Concentrations: • rhTNF (100 ng/ml) • Compound a (500 nM)—Smac Mimetic, Tetralogic and SYNthesis Med Chem • IDN-6556 (10 μM)—Selleckchem (S7775)
# The cellular assay was carried out according to the following steps: • 1. Each well was prepared by sequential addition of: • a. 40 μL of cell suspension (5.5×10^4 cells/mL) was added to each well to provide a final cell concentration of 2,200 cells per well. • b. After 24 hours, DMSO (control; columns 1-2 and 23-24) or compound in DMSO—addition was performed using acoustic transfer of nL volumes of stock compound to give final test concentrations of 36, 12, 4, 1.3, 0.44, 0.148, 0.049, 0.016, 0.005 and 0.002 μM. All wells were backfilled with DMSO to a final total volume in the well of 100 nL. • c. Following compound/DMSO addition in step (b), Plates were incubated for 30 minutes at 37° C./10% CO2 in a humidified incubator and then 10 μL of 5×TSI cocktail (except to positive controls; columns 2 and 24) was added to each well. • 2. After 3 hours, plate was removed from the 37° C. incubator and equilibrated to room temperature for 15 minutes. • 3. 15 μL of room temperatured CellTitre-Glo2™ (Promega™) was added to each well. • 4. Shook plates for 2 minutes (˜600 rpm) and incubated at room temperature for 15 minutes to allow signal to stabilise. • 5. Read luminescence readout on a plate reader.
# Percent viability was calculated for each compound according to equation (2):
# [formula] • Wherein RawData is the readout of any cell containing a compound of the invention.
# TA is the total activity provided by the luminescence readout from DMSO only wells (columns 2 and 24)=100% viability.
# NSA is the non-specific activity provided by DMSO+TSI wells (columns 1 and 23)=0% viability • Curve fitting: 10-point titration curves are fitted with the 4-parameter logistic nonlinear regression model and the IC50 reported is the inflection point of the curve • Analysis: Data was loaded into Dotmatics™ and visualised using the Tibco@ • Spotfire™ software. 10 point titration curves were fitted with the 4 parameter logistic nonlinear regression model and the IC50 reported reflect the inflection point of the curve for curve fitting.
# Assay involving the TSI cocktail (T: TNF; S: Smac mimetic; I: IDN-6556): TSI treatment ensures that cells specifically undergo necroptotic cell death. TNF activates the TNF receptor, Smac mimetic directs the signal away from proinflammatory signaling and toward the RIPK1/RIPK3-mediated cell death pathways, and IDN-6556 (Caspase inhibitor) ensures that the apoptotic response is blocked leaving only the programmed necrosis response. The compounds' activity (solution in DMSO) tested in this TSI-induced assay was evaluated by determining the number of viable cells in culture by measuring the amount of ATP present as measured by CelltiterGlo.
# [2] = KINOMEscan, Table 21, read-out: Human MLKL (full-length) (KD)
# [3] = hMLKL, Table 25, read-out: MLKL (KD)
# Chain of human RIPK3 (Q9Y572 whole entry): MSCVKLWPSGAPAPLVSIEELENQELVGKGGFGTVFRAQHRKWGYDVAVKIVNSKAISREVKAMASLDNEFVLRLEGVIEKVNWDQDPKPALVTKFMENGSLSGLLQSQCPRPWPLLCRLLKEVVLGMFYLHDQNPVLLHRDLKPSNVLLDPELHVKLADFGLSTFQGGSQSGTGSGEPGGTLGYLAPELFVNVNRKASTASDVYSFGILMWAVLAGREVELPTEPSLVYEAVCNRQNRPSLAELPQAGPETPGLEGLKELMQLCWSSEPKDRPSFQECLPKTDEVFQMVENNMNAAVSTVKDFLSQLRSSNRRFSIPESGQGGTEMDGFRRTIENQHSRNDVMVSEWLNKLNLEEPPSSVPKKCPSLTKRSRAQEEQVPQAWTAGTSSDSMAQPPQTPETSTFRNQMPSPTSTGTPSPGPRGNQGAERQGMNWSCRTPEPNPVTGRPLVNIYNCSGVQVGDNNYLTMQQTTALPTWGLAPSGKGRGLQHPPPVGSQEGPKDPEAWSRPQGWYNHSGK
# Chain of human RIPK1 (Q13546 whole entry): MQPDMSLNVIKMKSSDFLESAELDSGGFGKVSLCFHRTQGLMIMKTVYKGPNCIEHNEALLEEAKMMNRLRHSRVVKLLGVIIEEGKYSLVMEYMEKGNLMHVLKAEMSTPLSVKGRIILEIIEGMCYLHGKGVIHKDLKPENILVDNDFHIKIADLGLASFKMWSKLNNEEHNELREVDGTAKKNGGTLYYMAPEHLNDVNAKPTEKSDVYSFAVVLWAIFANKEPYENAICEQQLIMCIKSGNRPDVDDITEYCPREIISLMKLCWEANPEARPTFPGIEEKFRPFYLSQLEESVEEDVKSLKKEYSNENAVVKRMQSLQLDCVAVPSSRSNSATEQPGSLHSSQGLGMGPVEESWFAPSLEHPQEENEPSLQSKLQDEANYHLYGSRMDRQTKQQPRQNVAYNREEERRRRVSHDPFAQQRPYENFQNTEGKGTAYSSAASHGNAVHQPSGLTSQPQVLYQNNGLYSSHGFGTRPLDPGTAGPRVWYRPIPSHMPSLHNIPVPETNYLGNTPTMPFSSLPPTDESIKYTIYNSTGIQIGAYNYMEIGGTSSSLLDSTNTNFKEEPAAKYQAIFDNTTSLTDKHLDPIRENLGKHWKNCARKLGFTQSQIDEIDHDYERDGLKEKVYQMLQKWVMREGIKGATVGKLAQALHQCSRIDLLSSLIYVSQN
# Chain of human MLKL (full length) (Q8NB16 whole entry, the tested form may be a part): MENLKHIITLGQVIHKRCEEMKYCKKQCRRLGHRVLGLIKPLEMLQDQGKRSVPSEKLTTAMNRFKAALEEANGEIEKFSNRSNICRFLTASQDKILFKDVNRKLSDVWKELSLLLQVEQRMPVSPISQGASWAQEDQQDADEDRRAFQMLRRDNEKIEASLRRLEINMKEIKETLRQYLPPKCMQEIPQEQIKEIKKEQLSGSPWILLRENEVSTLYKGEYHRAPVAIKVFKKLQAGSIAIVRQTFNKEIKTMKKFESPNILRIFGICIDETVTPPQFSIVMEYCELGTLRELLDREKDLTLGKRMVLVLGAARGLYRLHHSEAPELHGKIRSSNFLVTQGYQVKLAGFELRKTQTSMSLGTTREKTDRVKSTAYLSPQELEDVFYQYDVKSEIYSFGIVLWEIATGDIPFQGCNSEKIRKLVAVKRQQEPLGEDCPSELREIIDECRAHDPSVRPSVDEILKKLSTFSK
Kd (human MLKL (full length); [2]) [µM],Kd (human RIPK1) [µM],Kd (human RIPK3) [µM],Kd (human MLKL (full length); [3]) [µM],SMILES,IC50 ([1]; Table 24) [µM],IC50 ([1]; Table 27) [µM]
< 0.001,> 10,> 10,–,"C[C@H](Oc1cc(-c2nn(C)c3c(-c4cnn(C5CCC(N(C)C)C5)c4)cnc(N)c23)ccc1NS(=O)(=O)C(F)F)c1ccc(F)cc1 (stereo partly drawn) [Compound 168, N-(4-(4-amino-7-(1-(3-(dimethylamino)cyclopentyl)-1H-pyrazol-4-yl)-1-methyl-1H-pyrazolo[4,3-c]pyridin-3-yl)-2-((S)-1-(4-fluorophenyl)ethoxy)phenyl)-1,1-difluoromethanesulfonamide]",< 1,–
–,> 10,> 10,–,"C[C@H](Oc1cc(-c2nn(C)c3c(-c4cnn(C5CCN(C)C(C(F)(F)F)C5)c4)cnc(N)c23)ccc1NS(=O)(=O)C(F)F)c1ccc(F)cc1 (stereo partly drawn) [Compound 148, N-(4-(4-amino-1-methyl-7-(1-(1-methyl-2-(trifluoromethyl)piperidin-4-yl)-1H-pyrazol-4-yl)-1H-pyrazolo[4,3-c]pyridin-3-yl)-2-((S)-1-(4-fluorophenyl)eth-oxy)phenyl)-1,1-difluoromethane-sulfonamide]",< 1,–
< 0.001,> 10,> 10,–,"CC(=O)N1CCC(n2cc(-c3cnc(N)c4c(-c5ccc(NS(=O)(=O)C(F)F)c(O[C@@H](C)c6ccc(F)cc6)c5)nn(C)c34)cn2)CC1 [Compound 109, (S)—N-(4-(7-(1-(1-acetylpiperidin-4-yl)-1H-pyrazol-4-yl)-4-amino-1-methyl-1H-pyrazolo[4,3-c]pyridin-3-yl)-2-(1-(4-fluorophenyl)ethoxy)phenyl)-1,1-difluoromethanesulfonamide]",< 1,–
–,> 10,> 10,–,"CC1C(n2cc(-c3cnc(N)c4c(-c5ccc(NS(=O)(=O)C(F)F)c(O[C@@H](C)c6ccc(F)cc6)c5)nn(C)c34)cn2)CN1C (stereo partly drawn) [Compound 147, N-(4-(4-amino-7-(1-(1,2-dimethylazetidin-3-yl)-1H-pyrazol-4-yl)-1-methyl-1H-pyrazolo[4,3-c]pyridin-3-yl)-2-((S)-1-(4-fluorophenyl)ethoxy)phenyl)-1,1-difluoromethanesulfonamide]",< 1,–
–,–,–,0.01 to 1,"Cc1ncsc1-c1ccc(CNC(=O)[C@@H]2C[C@@H](O)CN2C(=O)[C@@H](NC(=O)CCCCOC(=O)c2ccc(-c3cnc(N)c4c(-c5ccc(NS(=O)(=O)C(F)F)c(O[C@@H](C)c6ccc(F)cc6)c5)nn(C)c34)cc2)C(C)(C)C)cc1 [Compound 1064, 4-{[(2S)-1-[(2S,4R)-4-hydroxy-2-({[4-(4-methyl-1,3-thiazol-5-yl)phenyl]methyl}carbamoyl)pyrrolidin-1-yl]-3,3-dimethyl-1-oxobutan-2-yl]carbamoyl}butyl 4-{4-amino-3-[4-(difluoromethanesulfonamido)-3-[(1 S)-1-(4-fluorophenyl)ethoxy]phenyl]-1-methyl-1H-pyrazolo[4,3-c]pyridin-7-yl}benzoate]",–,1 to 10
–,–,–,< 0.01,"Cc1ncsc1-c1ccc(CNC(=O)[C@@H]2C[C@@H](O)CN2C(=O)[C@@H](NC(=O)CCCCCn2cc(-c3cnc(N)c4c(-c5ccc(NS(=O)(=O)C(F)F)c(O[C@@H](C)c6ccc(F)cc6)c5)nn(C)c34)cn2)C(C)(C)C)cc1 [Compound 1066, (2S,4R)-1-[(2S)-2-[6-(4-{4-amino-3-[4-(difluoromethanesulfonamido)-3-[(1S)-1-(4-fluorophenyl)ethoxy]phenyl]-1-methyl-1H-pyrazolo[4,3-c]pyridin-7-yl}-1H-pyrazol-1-yl)hexanamido]-3,3-dimethylbutanoyl]-4-hydroxy-N-{[4-(4-methyl-1,3-thiazol-5-yl)phenyl]methyl}pyrrolidine-2-carboxamide]",–,1 to 10
–,–,–,< 0.01,"Cc1ncsc1-c1ccc(CNC(=O)[C@@H]2C[C@@H](O)CN2C(=O)[C@@H](NC(=O)C2(F)CC2)C(C)(C)C)c(OCCOCCOCCOCCn2cc(-c3cnc(N)c4c(-c5ccc(NS(=O)(=O)C(F)F)c(O[C@@H](C)c6ccc(F)cc6)c5)nn(C)c34)cn2)c1 [Compound 1061, (2S,4R)-N-({2-[2-(2-{2-[2-(4-{4-amino-3-[4-(difluoromethanesulfonamido)-3-[(1S)-1-(4-fluorophenyl)ethoxy]phenyl]-1-methyl-1H-pyrazolo[4,3-c]pyridin-7-yl}-1H-pyrazol-1-yl)ethoxy]ethoxy}ethoxy)ethoxy]-4-(4-methyl-1,3-thiazol-5-yl)phenyl}methyl)-1-[(2S)-2-[(1-fluorocyclopropyl)formamido]-3,3-dimethylbutanoyl]-4-hydroxypyrrolidine-2-carboxamide]",–,1 to 10
–,–,–,< 0.01,"C[C@H](Oc1cc(-c2nn(C)c3c(-c4cnn(C5CCN(CCc6cccc7c6C(=O)N(C6CCC(=O)NC6=O)C7=O)CC5)c4)cnc(N)c23)ccc1NS(=O)(=O)C(F)F)c1ccc(F)cc1 (stereo partly drawn) [Compound 1136, N-(4-{4-amino-7-[1-(1-{2-[2-(2,6-dioxopiperidin-3-yl)-1,3-dioxo-2,3-dihydro-1H-isoindol-4-yl]ethyl}piperidin-4-yl)-1H-pyrazol-4-yl]-1-methyl-1H-pyrazolo[4,3-c]pyridin-3-yl}-2-[(1S)-1-(4-fluorophenyl)ethoxy]phenyl)-1,1-difluoromethanesulfonamide]",–,1 to 10
–,–,–,< 0.01,"C[C@H](Oc1cc(-c2nn(C)c3c(-c4cnn(CCCCCCC(=O)Nc5cccc6c5CN(C5CCC(=O)NC5=O)C6=O)c4)cnc(N)c23)ccc1NS(=O)(=O)C(F)F)c1ccc(F)cc1 (stereo partly drawn) [Compound 1062, 7-(4-{4-amino-3-[4-(difluoromethanesulfonamido)-3-[(1S)-1-(4-fluorophenyl)ethoxy]phenyl]-1-methyl-1H-pyrazolo[4,3-c]pyridin-7-yl}-1H-pyrazol-1-yl)-N-[2-(2,6-dioxopiperidin-3-yl)-1-oxo-2,3-dihydro-1H-isoindol-4-yl]heptanamide]",–,1 to 10
–,–,–,< 0.01,"C[C@H](Oc1cc(-c2nn(C)c3c(-c4cnn(C5CCN(C(=O)c6ccc7c(N8CCC(=O)NC8=O)coc7c6)CC5)c4)cnc(N)c23)ccc1NS(=O)(=O)C(F)F)c1ccc(F)cc1 [Compound 1117, N-{4-[4-amino-7-(1-{1-[3-(2,4-dioxo-1,3-diazinan-1-yl)-1-benzofuran-6-carbonyl]piperidin-4-yl}-1H-pyrazol-4-yl)-1-methyl-1H-pyrazolo[4,3-c]pyridin-3-yl]-2-[(1S)-1-(4-fluorophenyl)ethoxy]phenyl}-1,1-difluoromethanesulfonamide]",–,1 to 10

SMILES,Kd (human MLKL (full length); [2]) [µM],Kd (human RIPK1) [µM],Kd (human RIPK3) [µM],Kd (human MLKL (full length); [3]) [µM],IC50 ([1]; Table 24) [µM],IC50 ([1]; Table 27) [µM]
"C[C@H](Oc1cc(-c2nn(C)c3c(-c4cnn(C5CC6CCC(C5)N6CC(F)(F)F)c4)cnc(N)c23)ccc1NS(=O)(=O)C(F)F)c1ccc(F)cc1 (stereo partly drawn) [Compound 153, N-(4-(4-amino-1-methyl-7-(1-(8-(2,2,2-trifluoroethyl)-8-azabicyclo[3.2.1]octan-3-yl)-1H-pyrazol-4-yl)-1H-pyrazolo[4,3-c]pyridin-3-yl)-2-((S)-1-(4-fluorophenyl)ethoxy)phenyl)-1,1-difluoromethanesulfonamide]",–,> 10,> 10,–,< 1,–
